Read-outs that look alike come from different tables or passages of the source.
Columns and labels:
[1] = target: T1, α2β GlyR (Homo sapiens, UniProt P23416+P48167); assay: Whole-cell patch-clamp of glycine-induced currents, heteromeric α2β GlyR expressed in CHO cells; type: cell-based; settings: glycine 30 μM
T1 construct: expressed in transfected cells; host or cells: CHO cells
Method: (§1) The experiments were carried out on cultured Chinese hamster ovary (CHO) cells obtained from the American Type Tissue Culture Collection (ATCC, Molsheim, France) that were maintained in culture conditions as previously described (Mukhtarov et al., [2013]; Maleeva et al., [2015]).
(§2) One day before transfection, cells were plated on the cover slips (12 mm in diameter) and placed inside 35-mm cell culture dishes with 2 ml of medium. Transfection was performed using the Lipofectamine 3000 protocol (Life Technology, USA). To facilitate identification of transfected cells a green fluorescent protein (GFP) was added to the transfection mixture. For expression of functional heteromeric receptors, cells were simultaneously transfected with cDNAs of α and β subunits in the ratio 1:10. Three hours after the initial exposure of cells to the cDNAs the culture medium was replaced with that containing strychnine (1 μM), which prevents spontaneous activation of GlyRs. Electrophysiological recordings were performed in the fluorescent cells 24–72 h after transfection.
(§3) Whole-cell and outside-out recordings were performed at room temperature (20–25°C) using an EPC-9 amplifier (HEKA Elektronik, Germany). Cells were continuously superfused with external solution containing (mM): NaCl 140, CaCl2 2, KCl 2.8, MgCl2 4, HEPES 20, glucose 10; pH 7.4; 320–330 mOsm. Intracellular solution used for filling recording patch pipettes contained (mM): CsCl 140, CaCl2 6, MgCl2 2, MgATP 2, NaGTP 0.4, HEPES/CsOH 10, BAPTA (tetrapotassium salt) 2; pH 7.3; 290 mOsm. Two different protocols of solutions application were used in this study. […] A “ramp protocol” implies the gradual change of Vhold alternately from −80 to +80 mV and from +80 to −80 mV during 1 s, Vhold was fixed at −80 or +80 mV at the beginning and at the end of the ramp for 500 ms (Figure 2B).
(§4) Recording pipettes were pulled from borosilicate glass capillaries (Harvard Apparatus Ltd, USA) and had resistances of 5–10 MOhm. For the rapid replacement of the solutions, the fast application system was used. Three parallel rectangular tubes (100 × 100 μm) were positioned 40–50 μm above the recorded cell. The movement of the tubes was controlled by a computer-driven fast exchange system (SF 77A Perfusion Fast-Step, Warner, USA) allowing a 10–90% solution exchange in 3–5 ms, as measured by open electrode controls (1/10 external solution/water). Cells with low input resistance (<150 MOhm) and a rapid run-down (>30% with repetitive application) were excluded from analysis.
(§5) Electrophysiological recordings were performed using PatchMaster (HEKA Electronic, Germany) software.

[2] = target: T2, α3 GlyR (Homo sapiens, UniProt O75311); assay: Whole-cell patch-clamp of glycine-induced currents, α3 GlyR expressed in CHO cells; type: cell-based; settings: glycine 100 μM; for inhibition at 30 µM / inhibition at 300 µM: CHO, long application protocol, read-out: inhibition of α3 GlyR-mediated currents; for inhibition at 30 µM: NFA 30 μM; for inhibition at 300 µM: NFA 300 μM
T2 construct: expressed in transfected cells; host or cells: CHO cells
T2 sequence (O75311 34-464): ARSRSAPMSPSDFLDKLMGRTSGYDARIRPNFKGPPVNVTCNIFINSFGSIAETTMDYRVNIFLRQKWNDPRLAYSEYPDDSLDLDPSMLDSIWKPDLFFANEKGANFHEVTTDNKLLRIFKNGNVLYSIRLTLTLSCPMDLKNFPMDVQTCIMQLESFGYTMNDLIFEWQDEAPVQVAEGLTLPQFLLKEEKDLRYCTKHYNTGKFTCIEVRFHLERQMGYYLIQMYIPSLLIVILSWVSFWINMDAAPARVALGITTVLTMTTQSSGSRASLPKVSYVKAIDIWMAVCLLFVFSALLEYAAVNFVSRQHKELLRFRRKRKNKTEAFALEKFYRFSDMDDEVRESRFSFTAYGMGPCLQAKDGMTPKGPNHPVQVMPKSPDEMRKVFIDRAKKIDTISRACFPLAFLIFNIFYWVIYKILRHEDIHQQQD
Method: as §1, §2, §3, §4, §5
It is well documented that α3 GlyRs rapidly desensitize (Nikolic et al., [1998]) and this complicates accurate estimation of the NFA blocking potency.

[3] = system: ClC-K kidney Cl− channels; parameters: method as in Zifarelli et al., 2010; settings: biphasic: activates at low concentrations; ref Zifarelli et al., 2010; cited from earlier work
[4] = target: T3, α1β GlyR (Homo sapiens, UniProt P23415+P48167); assay: Whole-cell patch-clamp of glycine-induced currents, heteromeric α1β GlyR expressed in CHO cells; type: cell-based; settings: glycine 30 μM
T3 construct: expressed in transfected cells; host or cells: CHO cells
T3 sequence (P23415 29-449 isoform P23415-2 limits assumed): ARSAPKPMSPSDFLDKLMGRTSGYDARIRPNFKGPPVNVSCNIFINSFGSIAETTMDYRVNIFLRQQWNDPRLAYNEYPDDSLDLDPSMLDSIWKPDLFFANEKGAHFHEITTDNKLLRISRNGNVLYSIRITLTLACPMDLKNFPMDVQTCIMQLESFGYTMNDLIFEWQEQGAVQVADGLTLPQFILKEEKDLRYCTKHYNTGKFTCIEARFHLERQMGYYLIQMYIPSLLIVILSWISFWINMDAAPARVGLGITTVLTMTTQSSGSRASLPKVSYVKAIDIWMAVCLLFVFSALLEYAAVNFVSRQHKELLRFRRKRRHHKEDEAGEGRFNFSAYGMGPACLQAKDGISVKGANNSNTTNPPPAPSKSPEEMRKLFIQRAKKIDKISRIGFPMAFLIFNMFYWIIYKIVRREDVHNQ
T3 sequence (P48167 23-497): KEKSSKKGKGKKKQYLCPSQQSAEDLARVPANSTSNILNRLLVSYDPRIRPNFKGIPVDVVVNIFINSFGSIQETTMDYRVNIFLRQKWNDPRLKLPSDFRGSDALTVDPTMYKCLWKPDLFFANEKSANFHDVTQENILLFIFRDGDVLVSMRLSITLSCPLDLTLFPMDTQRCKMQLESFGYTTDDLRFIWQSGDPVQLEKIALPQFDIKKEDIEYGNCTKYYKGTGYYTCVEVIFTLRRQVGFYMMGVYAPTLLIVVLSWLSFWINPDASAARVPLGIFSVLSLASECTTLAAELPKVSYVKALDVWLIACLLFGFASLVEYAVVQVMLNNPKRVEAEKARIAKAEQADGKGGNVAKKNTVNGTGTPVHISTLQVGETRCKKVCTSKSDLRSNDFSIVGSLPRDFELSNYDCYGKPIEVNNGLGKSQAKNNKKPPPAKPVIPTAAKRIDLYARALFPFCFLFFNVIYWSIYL
Method: as §1, §2, §3, §4, §5

[5] = +30 mV, representative, read-out: NFA IC50 (representative IC50 curve)
[6] = +80 mV, mean ± SEM, read-out: IC50 of NFA
[7] = +80 mV, representative, read-out: NFA IC50 (representative IC50 curve)
[8] = −30 mV, representative, read-out: NFA IC50 (representative IC50 curve)
[9] = −80 mV, representative, read-out: NFA IC50 (representative IC50 curve)

T1 sequence (P23416 28-452 isoform P23416-2 limits assumed): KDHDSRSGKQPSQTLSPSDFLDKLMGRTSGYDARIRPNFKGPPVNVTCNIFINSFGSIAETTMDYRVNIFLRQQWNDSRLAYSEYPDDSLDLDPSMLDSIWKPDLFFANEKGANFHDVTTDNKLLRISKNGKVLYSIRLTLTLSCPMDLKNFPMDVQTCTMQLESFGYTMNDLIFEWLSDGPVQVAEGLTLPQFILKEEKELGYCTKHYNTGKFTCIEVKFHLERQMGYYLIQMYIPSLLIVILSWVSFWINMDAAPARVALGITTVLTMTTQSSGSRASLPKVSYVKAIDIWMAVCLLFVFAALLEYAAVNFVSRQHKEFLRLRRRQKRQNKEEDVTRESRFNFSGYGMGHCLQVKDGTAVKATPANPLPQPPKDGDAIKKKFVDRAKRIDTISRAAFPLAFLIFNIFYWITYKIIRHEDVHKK
T1 sequence (P48167 23-497): as the sequence (P48167 23-497) above

SMILES: O=C(O)c1cccnc1Nc1cccc(C(F)(F)F)c1 [NFA, Niflumic acid]
- IC50 [1, 5]: 24 µM
- IC50 [1, 6]: 20 ± 8 µM
- IC50 [1, 7]: 22 µM
- IC50 [1, 8]: 47 µM
- IC50 ([1]; −80 mV, mean ± SEM, read-out: IC50 of NFA): 107 ± 37 µM
- IC50 [1, 9]: 84 µM
- IC50 [2, 5]: 23 µM
- IC50 [2, 7]: 10 µM
- inhibition at 30 µM ([2]; +30 mV): 62 ± 5%
- inhibition at 30 µM ([2]; −30 mV): 32 ± 4%
- inhibition at 300 µM ([2]; +30 mV): 90 ± 2%
- inhibition at 300 µM ([2]; −30 mV): 86 ± 5%
- IC50 ([2]; MP +80 mV, mean ± SEM, read-out: IC50 of NFA): 16 ± 6 µM
- IC50 ([2]; MP −80 mV, mean ± SEM, read-out: IC50 of NFA): 86 ± 14 µM
- IC50 [2, 8]: 78 µM
- IC50 [2, 9]: 117 µM
- concentrations at which NFA blocks the channels [3]: > 1 mM
- IC50 [4, 5]: 152 µM
- IC50 [4, 6]: 150 ± 14 µM
- IC50 [4, 7]: 144 µM
- IC50 [4, 8]: 200 µM
- IC50 [4, 9]: 191 µM

Source: publication PMC5432571 (Frontiers in Molecular Neuroscience, 2017)
